Measurements: ChEMBL document CHEMBL2203081 (Bioorg Med Chem Lett, 2012)
Activity calls are given as the source filed them. The rule behind the calls is not given here.

How the values were obtained:
[1] = target: Leucine-rich repeat serine/threonine-protein kinase 2 (Homo sapiens) (UniProt Q5S007); settings: 0.03 to 3 uM
Description: Inhibition of LRRK2 in human lymphoblastoid cells assessed as inhibition of Ser935 autophosphorylation at 0.03 to 3 uM after 90 mins by immunoblot method

[2] = target: Leucine-rich repeat serine/threonine-protein kinase 2 (Homo sapiens) (UniProt Q5S007); settings: HEK293, 0.03 to 3 uM
Description: Inhibition of GFP-tagged LRRK2 expressed in HEK293 cells assessed as inhibition of Ser935 autophosphorylation at 0.03 to 3 uM after 90 mins by immunoblotting method

[3] = target: Leucine-rich repeat serine/threonine-protein kinase 2 (Homo sapiens) (UniProt Q5S007); settings: 0.03 to 3 uM; remark: listed apart in the source
Description: Inhibition of LRRK2 in human lymphoblastoid cells assessed as inhibition of Ser910 autophosphorylation at 0.03 to 3 uM after 90 mins by immunoblot method

[4] = target: Leucine-rich repeat serine/threonine-protein kinase 2 (Homo sapiens) (UniProt Q5S007); settings: HEK293, 0.03 to 3 uM; remark: listed apart in the source
Description: Inhibition of GFP-tagged LRRK2 expressed in HEK293 cells assessed as inhibition of Ser910 autophosphorylation at 0.03 to 3 uM after 90 mins by immunoblotting method

Leucine-rich repeat serine/threonine-protein kinase 2 (Homo sapiens), sequence (Q5S007 whole entry): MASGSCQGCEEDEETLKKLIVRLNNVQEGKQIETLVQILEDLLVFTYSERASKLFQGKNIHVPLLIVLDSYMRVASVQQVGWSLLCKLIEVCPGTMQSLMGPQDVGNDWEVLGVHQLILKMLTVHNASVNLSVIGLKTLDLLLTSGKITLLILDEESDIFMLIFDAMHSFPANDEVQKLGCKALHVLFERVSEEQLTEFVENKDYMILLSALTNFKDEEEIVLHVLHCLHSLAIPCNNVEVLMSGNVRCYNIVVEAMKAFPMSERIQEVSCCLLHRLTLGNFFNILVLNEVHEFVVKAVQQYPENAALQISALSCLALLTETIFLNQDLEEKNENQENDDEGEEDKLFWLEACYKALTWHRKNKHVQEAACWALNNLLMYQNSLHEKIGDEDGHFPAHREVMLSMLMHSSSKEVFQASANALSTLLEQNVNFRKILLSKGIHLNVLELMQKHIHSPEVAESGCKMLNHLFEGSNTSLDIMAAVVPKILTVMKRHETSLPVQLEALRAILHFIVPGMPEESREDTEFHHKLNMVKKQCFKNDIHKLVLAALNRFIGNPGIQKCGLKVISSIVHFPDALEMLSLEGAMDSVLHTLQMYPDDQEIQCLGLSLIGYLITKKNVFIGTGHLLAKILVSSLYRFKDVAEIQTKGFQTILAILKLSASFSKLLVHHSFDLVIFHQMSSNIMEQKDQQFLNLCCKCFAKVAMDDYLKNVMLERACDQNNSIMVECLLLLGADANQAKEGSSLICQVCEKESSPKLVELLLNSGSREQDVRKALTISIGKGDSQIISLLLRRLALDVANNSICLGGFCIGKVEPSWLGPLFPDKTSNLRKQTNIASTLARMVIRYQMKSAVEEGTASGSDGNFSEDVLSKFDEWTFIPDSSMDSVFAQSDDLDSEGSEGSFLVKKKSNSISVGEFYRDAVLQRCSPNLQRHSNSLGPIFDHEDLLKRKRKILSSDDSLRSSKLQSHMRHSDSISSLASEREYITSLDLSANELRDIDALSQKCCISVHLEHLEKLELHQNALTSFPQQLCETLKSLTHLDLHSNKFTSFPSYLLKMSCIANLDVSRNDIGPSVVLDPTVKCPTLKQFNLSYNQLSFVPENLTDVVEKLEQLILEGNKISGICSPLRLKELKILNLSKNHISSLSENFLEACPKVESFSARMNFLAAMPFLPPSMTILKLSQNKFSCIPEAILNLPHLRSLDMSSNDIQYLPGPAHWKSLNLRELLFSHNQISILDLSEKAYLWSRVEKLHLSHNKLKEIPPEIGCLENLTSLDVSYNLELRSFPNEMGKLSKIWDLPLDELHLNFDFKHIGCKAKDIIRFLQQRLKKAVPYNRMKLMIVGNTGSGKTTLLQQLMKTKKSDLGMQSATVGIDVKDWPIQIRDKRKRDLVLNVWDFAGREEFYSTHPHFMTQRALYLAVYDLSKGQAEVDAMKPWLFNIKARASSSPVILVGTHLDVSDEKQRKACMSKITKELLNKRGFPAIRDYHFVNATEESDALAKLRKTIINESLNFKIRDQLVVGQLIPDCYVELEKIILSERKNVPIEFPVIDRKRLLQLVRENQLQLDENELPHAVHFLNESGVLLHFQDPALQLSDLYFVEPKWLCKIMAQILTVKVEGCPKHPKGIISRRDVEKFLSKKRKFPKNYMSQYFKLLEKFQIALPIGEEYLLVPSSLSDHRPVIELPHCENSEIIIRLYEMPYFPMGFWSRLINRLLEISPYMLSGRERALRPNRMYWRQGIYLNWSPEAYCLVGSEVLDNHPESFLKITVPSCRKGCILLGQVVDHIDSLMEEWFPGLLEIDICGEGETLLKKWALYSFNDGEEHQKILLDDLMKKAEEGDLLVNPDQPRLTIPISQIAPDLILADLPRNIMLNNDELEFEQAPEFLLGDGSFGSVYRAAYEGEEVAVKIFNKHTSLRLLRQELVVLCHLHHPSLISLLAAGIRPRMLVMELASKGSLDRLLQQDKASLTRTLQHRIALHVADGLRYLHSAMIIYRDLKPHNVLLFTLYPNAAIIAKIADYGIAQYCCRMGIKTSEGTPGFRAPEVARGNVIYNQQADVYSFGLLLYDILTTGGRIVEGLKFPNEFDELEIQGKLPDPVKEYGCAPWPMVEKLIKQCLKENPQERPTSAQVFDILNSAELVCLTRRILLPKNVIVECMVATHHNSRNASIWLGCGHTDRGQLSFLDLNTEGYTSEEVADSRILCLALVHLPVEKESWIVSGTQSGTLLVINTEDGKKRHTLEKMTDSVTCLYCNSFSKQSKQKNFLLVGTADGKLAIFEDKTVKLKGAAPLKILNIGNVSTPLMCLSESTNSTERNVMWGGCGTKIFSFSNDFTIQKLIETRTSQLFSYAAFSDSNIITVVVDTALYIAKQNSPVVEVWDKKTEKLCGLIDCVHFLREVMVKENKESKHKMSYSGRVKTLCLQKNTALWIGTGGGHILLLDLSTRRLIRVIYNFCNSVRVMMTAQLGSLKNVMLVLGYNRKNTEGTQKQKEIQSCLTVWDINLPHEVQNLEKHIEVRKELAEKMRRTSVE

inhibition [1]: Active
inhibition [2]: Active
inhibition [3]: Active
inhibition [4]: Active
Structure (SMILES): COc1cc(C(=O)N2CCC(N3CCN(C)CC3)CC2)ccc1Nc1ncc2c(n1)N(C)c1ccccc1C(=O)N2C
